Patent US8633226B2, “Piperidinyl derivative as a modulator of chemokine receptor activity” (Bristol-Myers Squibb Company, priority 2008, dated 2014)

Key:
[1] = biological target: human cardiac L-type Ca channel (α1C) and its β subunit (Homo sapiens (Human), UniProt Q13936); assay: L-type calcium channel whole-cell patch-clamp assay; assay type: cell-based; settings: 30 μM, HEK-293 cells, protein-free buffer
Experimental: In addition to the potential for interaction with the L-type calcium channel, whole-cell patch-clamp was used to directly measure inward calcium currents in HEK-293 cells stably expressing the cloned human cardiac L-type Ca channel (α1C) and its β subunit. Effects of compounds were calculated by measuring inhibition of peak current. Experiments were carried out using an aqueous buffer at pH 7.4 and at room temperature. There is no protein in the buffer and drug concentrations reported are nominal free drug levels.

Protein binding, human = assay type: in vitro ADME
Protein binding, rabbit = assay type: in vitro ADME
anesthetized rabbits = assay: Electrocardiography in anesthetized rabbits; assay type: in vivo; settings: anesthetized rabbit
Experimental: A dose-response study of test compound was conducted in anesthetized rabbits to assess the cardiac electrophysiologic profile established in the cellular ion channel assays.
Experiments were performed in propofol-fentanyl anesthetized closed-chest male rabbits. A body surface electrocardiogram (ECG) and an intra-cardiac His-bundle electrogram were continuously monitored and recorded during the studies, using a PoNeMah system and a Prucka electrophysiological recording system, respectively. Test compound was prepared on the day of study in a vehicle of PEG400:ethanol:water (1:1:1) at a dosing concentration of 30 mg/mL. Test compound (n=3) or vehicle (n=3) was given intravenously over 5 minutes via an infusion pump at incremental doses of 3, 10 and 30 mg/kg. The interval between doses was 10 minutes, allowing for a 5-minute test agent infusion and a 5-minute rest period. Blood was sampled at baseline (pre-drug infusion) and immediately at the end of each infusion. For the 30 mg/kg dose, additional blood samples were taken at 10, 20 and 30 minutes after the end of infusion.
PR interval, QRS duration and QT interval were averaged from a 1 minute ECG recording period at time of blood sampling. QT interval was corrected for heart rate effects using both Fridericia (QTcf) and Van der Water (QTcv) formulae. AH and HV intervals, representing A-V node conduction and His-Purkinje conduction, respectively, were assessed by manual measurements from the His-bundle electrogram. Data were expressed as percent change from pre-drug baseline (mean±SEM) for PR, QRS, AH and HV intervals as well as delta change from the pre-drug infusion baseline (mean±SEM) for QTc intervals. Changes of ≧10% in PR, QRS, and AH intervals, and 20% in HV interval, as well as >10 ms in QTc interval are considered significant based on experience with the model.

Sequence of human cardiac L-type Ca channel (α1C) and its β subunit (Q13936 whole entry): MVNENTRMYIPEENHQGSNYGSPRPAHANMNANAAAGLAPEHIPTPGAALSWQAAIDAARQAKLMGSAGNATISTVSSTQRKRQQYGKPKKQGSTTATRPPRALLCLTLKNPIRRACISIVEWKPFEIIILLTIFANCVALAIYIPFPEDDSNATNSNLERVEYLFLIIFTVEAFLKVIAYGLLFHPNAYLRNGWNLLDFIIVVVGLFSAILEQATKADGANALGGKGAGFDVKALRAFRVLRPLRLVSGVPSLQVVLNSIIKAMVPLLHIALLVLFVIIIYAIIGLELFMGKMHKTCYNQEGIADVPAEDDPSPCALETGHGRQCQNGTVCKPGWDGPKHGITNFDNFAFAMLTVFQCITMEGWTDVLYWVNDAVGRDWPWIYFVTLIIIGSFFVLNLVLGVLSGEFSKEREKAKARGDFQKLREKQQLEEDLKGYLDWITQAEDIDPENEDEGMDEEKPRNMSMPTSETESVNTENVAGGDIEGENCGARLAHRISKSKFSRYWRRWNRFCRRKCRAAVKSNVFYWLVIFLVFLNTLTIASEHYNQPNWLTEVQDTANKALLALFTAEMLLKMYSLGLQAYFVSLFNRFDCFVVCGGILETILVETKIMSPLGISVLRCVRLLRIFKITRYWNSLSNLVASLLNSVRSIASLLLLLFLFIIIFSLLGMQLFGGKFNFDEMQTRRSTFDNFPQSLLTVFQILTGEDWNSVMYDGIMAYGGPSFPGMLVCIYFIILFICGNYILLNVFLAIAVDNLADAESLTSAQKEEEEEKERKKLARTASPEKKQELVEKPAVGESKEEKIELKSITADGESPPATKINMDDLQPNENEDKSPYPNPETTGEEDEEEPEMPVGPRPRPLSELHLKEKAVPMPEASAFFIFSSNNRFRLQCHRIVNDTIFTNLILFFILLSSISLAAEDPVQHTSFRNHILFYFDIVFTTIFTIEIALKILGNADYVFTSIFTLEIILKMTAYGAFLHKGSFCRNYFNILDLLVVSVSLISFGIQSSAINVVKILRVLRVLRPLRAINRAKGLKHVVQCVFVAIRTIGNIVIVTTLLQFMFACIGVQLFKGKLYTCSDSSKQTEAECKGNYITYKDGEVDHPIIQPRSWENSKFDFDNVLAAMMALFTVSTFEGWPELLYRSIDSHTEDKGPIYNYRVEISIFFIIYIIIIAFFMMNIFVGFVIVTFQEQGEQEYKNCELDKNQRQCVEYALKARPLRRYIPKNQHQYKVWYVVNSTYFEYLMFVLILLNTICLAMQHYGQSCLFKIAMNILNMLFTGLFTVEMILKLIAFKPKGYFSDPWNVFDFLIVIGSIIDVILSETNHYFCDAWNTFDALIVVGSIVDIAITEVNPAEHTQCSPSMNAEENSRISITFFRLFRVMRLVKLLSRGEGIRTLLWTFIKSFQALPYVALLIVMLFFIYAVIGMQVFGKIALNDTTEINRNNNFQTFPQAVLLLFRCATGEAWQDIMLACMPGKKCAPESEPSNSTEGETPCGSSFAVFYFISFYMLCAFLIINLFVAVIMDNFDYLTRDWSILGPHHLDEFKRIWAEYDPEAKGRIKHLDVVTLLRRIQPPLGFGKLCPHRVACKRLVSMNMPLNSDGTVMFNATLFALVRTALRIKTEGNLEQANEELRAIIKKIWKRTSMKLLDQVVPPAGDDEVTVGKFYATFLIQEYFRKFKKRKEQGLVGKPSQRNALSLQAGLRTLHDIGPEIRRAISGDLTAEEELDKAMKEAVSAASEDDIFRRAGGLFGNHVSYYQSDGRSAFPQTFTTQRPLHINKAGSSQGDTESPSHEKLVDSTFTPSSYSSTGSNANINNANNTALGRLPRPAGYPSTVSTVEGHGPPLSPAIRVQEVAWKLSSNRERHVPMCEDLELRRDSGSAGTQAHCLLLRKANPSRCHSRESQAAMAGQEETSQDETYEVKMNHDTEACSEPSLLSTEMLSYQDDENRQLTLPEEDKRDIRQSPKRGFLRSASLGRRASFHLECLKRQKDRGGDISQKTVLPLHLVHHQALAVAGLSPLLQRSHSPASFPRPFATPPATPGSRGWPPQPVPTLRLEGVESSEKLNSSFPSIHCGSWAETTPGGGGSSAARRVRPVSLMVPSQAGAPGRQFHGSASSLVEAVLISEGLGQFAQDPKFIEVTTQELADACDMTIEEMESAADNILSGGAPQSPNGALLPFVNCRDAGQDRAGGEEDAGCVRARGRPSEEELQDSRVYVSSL
Sequence of human cardiac L-type Ca channel (α1C) and its β subunit (Q08289 whole entry partner): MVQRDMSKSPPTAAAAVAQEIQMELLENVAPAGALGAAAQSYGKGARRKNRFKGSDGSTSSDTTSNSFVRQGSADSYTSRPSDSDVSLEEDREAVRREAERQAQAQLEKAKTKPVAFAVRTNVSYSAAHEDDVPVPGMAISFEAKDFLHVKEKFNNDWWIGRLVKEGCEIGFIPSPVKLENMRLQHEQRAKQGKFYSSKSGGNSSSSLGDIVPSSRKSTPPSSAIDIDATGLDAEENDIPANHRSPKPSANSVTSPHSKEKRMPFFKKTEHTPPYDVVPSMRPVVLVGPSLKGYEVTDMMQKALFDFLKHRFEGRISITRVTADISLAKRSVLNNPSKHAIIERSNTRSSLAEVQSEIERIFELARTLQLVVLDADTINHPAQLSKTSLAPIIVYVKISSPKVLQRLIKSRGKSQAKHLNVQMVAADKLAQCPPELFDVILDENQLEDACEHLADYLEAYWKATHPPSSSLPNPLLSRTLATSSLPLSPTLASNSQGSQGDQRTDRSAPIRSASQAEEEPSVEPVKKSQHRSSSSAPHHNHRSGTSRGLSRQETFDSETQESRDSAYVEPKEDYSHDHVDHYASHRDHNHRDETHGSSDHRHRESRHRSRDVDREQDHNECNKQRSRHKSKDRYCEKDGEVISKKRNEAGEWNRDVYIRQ

CC(C)[C@@H](NC(=O)NCC(C)(C)O)C(=O)N1CC[C@](O)(c2ccc(Cl)cc2)C(C)(C)C1 [Compound I]
Ca, % inh [1]: 29% @ 30 μM | fraction unbound (Protein binding, human): 0.19 | fraction unbound (Protein binding, rabbit): 0.13 | NOEL dose (No Observed Effect Level) (anesthetized rabbits; iv infusion): 10 mg/kg | QT effect Dose (anesthetized rabbits; iv infusion): 30 mg/kg | QTcf, delta (anesthetized rabbits; iv infusion, at QT effect dose 30 mg/kg): 12 ms | Cmax: Free drug at QT effect dose (anesthetized rabbits; iv, 30 mg/kg): 26 µM | Cmax: Free drug at NOEL dose (anesthetized rabbits; iv, NOEL dose 10 mg/kg): 8.5 µM
